Data reported in ChEMBL document CHEMBL3991601, “The target landscape of clinical kinase drugs” (Science, 2017).
The source made the active and inactive calls. No stated cut-off is given here; in the data, actives have a measured Kd and inactives only a lower limit.

Key:
[1] = target: Mitogen-activated protein kinase kinase kinase 1 (Homo sapiens, UniProt Q13233)
[2] = target: Calcium/calmodulin-dependent protein kinase type II subunit delta (Homo sapiens, UniProt Q13557)
[3] = target: T1, Serine/threonine-protein kinase PLK4 (Homo sapiens, UniProt O00444)
T1 sequence (O00444 whole entry): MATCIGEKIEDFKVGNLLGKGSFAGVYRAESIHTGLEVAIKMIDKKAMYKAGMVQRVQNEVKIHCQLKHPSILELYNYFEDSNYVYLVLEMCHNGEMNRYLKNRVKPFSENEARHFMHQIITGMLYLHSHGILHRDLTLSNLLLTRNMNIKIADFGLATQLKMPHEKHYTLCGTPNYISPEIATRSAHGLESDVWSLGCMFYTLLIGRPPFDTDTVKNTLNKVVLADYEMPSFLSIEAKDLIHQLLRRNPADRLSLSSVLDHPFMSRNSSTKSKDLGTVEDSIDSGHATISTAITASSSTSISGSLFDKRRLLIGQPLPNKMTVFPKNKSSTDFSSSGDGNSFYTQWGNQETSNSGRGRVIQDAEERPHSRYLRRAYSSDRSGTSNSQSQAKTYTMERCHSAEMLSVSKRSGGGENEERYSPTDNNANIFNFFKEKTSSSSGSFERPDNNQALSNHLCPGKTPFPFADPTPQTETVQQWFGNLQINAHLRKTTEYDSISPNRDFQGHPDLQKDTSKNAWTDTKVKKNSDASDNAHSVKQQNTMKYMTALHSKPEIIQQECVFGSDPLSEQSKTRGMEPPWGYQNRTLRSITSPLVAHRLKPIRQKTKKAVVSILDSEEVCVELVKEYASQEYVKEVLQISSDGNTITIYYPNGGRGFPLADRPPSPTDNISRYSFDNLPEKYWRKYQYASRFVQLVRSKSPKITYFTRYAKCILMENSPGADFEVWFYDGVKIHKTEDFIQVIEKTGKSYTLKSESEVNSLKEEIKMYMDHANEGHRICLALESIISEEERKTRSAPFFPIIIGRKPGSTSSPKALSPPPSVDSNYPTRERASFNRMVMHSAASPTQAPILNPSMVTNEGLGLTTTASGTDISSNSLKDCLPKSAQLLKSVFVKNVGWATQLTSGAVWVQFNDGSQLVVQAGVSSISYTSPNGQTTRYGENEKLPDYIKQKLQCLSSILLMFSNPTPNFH

[4] = target: T2, General transcription and DNA repair factor IIH helicase subunit XPD (Homo sapiens, UniProt P18074); details: read-out: Kd apparent; k-562, colo 205, sk-n-be(2) and mv-4-11
T2 sequence (P18074 whole entry): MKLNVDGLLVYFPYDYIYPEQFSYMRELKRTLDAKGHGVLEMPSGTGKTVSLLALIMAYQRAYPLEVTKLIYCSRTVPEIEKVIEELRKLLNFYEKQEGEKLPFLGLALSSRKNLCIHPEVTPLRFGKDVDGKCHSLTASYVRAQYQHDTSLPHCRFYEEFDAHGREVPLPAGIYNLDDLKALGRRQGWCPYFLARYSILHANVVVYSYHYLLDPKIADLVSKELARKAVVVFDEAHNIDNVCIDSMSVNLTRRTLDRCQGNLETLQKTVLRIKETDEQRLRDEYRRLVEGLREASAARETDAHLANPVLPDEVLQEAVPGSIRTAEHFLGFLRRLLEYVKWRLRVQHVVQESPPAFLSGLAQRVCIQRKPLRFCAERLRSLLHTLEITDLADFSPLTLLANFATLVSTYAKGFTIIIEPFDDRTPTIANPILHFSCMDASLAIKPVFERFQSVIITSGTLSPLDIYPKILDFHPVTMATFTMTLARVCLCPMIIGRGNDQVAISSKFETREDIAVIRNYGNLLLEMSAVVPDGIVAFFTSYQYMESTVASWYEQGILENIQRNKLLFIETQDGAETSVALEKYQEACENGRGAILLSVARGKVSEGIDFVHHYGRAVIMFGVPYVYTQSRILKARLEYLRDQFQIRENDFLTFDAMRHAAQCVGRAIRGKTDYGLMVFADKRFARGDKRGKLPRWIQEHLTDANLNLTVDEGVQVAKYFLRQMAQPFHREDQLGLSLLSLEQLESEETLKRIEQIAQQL

[5] = target: T3, Serine/threonine-protein kinase TAO3 (Homo sapiens, UniProt Q9H2K8)
T3 sequence (Q9H2K8 whole entry): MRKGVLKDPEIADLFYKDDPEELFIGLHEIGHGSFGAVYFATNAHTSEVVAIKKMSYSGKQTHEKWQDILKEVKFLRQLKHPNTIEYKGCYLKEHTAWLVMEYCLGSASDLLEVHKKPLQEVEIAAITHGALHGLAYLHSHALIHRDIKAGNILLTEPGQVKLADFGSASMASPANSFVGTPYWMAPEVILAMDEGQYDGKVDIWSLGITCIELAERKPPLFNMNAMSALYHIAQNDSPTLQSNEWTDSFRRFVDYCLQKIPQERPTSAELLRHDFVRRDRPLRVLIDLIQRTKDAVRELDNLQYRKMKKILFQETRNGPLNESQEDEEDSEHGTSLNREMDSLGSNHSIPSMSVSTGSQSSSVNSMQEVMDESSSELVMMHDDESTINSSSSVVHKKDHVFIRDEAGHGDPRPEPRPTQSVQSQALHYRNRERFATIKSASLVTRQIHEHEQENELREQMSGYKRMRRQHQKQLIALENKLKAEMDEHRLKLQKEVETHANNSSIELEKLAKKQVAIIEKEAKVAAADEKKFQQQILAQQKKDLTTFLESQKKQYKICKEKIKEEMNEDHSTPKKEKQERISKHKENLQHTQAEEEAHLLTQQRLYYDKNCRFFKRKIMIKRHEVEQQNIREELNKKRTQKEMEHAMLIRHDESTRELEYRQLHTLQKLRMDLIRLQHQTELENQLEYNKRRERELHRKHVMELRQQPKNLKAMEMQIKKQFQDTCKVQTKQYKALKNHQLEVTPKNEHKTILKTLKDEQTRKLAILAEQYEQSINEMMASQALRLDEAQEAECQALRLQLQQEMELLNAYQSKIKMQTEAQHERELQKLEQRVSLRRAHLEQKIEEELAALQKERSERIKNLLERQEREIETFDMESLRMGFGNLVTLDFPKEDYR

Sequence of Calcium/calmodulin-dependent protein kinase type II subunit delta (Q13557 whole entry): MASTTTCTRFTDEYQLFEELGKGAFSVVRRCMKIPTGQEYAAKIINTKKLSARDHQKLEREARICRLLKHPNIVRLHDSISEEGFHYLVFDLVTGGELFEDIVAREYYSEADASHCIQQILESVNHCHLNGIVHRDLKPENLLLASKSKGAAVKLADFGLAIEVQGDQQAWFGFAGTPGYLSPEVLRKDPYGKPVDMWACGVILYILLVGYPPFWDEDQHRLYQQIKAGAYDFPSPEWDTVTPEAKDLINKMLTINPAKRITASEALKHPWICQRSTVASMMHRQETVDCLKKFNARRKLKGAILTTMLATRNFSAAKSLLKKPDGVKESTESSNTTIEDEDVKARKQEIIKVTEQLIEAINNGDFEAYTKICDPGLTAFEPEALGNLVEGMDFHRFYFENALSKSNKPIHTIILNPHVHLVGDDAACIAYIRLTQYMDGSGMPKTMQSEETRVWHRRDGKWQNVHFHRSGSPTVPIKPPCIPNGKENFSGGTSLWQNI
Sequence of Mitogen-activated protein kinase kinase kinase 1 (Q13233 whole entry): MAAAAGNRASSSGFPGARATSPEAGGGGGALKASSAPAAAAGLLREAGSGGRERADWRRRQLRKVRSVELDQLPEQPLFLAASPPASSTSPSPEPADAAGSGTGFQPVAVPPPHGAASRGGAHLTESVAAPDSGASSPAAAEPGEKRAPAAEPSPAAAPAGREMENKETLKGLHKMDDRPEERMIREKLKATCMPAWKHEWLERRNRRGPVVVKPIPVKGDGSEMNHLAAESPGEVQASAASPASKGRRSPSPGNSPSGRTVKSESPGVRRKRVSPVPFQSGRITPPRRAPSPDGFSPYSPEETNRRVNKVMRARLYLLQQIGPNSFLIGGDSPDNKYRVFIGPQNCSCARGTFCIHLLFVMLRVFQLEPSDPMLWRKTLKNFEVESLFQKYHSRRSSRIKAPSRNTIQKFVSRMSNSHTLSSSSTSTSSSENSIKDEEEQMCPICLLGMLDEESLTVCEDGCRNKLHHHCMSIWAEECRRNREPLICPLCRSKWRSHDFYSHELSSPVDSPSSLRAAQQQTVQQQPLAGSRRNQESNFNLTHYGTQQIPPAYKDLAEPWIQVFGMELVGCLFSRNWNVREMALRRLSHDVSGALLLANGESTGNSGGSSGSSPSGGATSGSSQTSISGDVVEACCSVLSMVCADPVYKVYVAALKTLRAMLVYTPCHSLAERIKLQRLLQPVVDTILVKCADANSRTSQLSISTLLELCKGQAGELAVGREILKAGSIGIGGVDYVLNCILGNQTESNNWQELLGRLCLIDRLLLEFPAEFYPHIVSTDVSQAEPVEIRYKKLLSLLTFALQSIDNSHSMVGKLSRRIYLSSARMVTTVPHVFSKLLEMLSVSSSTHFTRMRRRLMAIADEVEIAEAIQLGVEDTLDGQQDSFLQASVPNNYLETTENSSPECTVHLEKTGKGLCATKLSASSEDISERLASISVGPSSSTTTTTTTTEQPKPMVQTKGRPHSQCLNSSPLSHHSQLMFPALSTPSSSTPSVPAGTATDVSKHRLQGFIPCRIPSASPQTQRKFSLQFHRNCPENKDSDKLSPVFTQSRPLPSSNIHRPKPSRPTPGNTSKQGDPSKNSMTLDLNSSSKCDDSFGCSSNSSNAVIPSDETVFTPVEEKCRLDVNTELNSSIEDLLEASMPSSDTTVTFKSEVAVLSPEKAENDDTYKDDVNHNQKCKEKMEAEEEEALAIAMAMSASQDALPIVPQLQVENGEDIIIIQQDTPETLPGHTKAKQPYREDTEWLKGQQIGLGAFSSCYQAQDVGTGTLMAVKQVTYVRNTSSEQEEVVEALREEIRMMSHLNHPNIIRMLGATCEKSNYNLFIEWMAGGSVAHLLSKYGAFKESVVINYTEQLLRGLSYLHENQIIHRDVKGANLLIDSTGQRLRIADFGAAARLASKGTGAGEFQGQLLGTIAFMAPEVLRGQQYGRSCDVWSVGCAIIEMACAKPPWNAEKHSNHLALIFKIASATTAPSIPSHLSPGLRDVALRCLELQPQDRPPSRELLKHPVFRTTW

Row | Kd [1] | Kd [2] | Kd [3] | Kd [4] | Kd [5] | Structure (SMILES)
1 | > 30 µM (inactive) | > 30 µM (inactive) | > 30 µM (inactive) | > 30 µM (inactive) | > 30 µM (inactive) | C[C@@H]1COC(Nc2ccc3ncnc(Nc4ccc(OCc5nccs5)c(Cl)c4)c3c2)=N1 [VARLITINIB]
2 | > 30 µM (inactive) | 0.019 µM (active) | > 30 µM (inactive) | > 30 µM (inactive) | 1.72 µM (active) | CCN1CCN(Cc2ccc(Nc3ncc(F)c(-c4cc(F)c5nc(C)n(C(C)C)c5c4)n3)nc2)CC1 [ABEMACICLIB]
3 | > 30 µM (inactive) | > 30 µM (inactive) | > 30 µM (inactive) | > 30 µM (inactive) | 2.29 µM (active) | O=c1[nH]c([C@@H]2CCCN2)nc2c1oc1ccc(Cl)cc12
4 | > 30 µM (inactive) | > 30 µM (inactive) | > 30 µM (inactive) | > 30 µM (inactive) | > 30 µM (inactive) | O=C(O)c1ccc2c(c1)nc(Nc1cccc(Cl)c1)c1ccncc12 [SILMITASERTIB]
5 | > 30 µM (inactive) | > 30 µM (inactive) | > 30 µM (inactive) | > 30 µM (inactive) | > 30 µM (inactive) | CCc1cc2c(cc1N1CCC(N3CCOCC3)CC1)C(C)(C)c1[nH]c3cc(C#N)ccc3c1C2=O [ALECTINIB]
6 | > 30 µM (inactive) | > 30 µM (inactive) | > 30 µM (inactive) | > 30 µM (inactive) | > 30 µM (inactive) | COc1cc2ncnc(Nc3ccc(F)c(Cl)c3)c2cc1NC(=O)/C=C/CN1CCCCC1 [DACOMITINIB ANHYDROUS]
7 | 4.13 µM (active) | > 30 µM (inactive) | > 30 µM (inactive) | > 30 µM (inactive) | > 30 µM (inactive) | C#Cc1cccc(Nc2ncnc3cc4c(cc23)OCCOCCOCCO4)c1 [ICOTINIB]
8 | > 30 µM (inactive) | > 30 µM (inactive) | > 30 µM (inactive) | > 30 µM (inactive) | > 30 µM (inactive) | COc1ccc2c(OCc3nnc4ccc(-c5ccccc5)nn34)ccnc2c1 [AMG-208]
9 | > 30 µM (inactive) | > 30 µM (inactive) | > 30 µM (inactive) | > 30 µM (inactive) | > 30 µM (inactive) | CNC(=O)c1cccc(-c2ccc3c(N4CCOC[C@@H]4C)nc(N4CCOC[C@@H]4C)nc3n2)c1 [VISTUSERTIB]
10 | > 30 µM (inactive) | > 30 µM (inactive) | > 30 µM (inactive) | > 30 µM (inactive) | > 30 µM (inactive) | COc1cc2ncnc3c2cc1OCCCCCN(C)Cc1ccc(Br)cc1N3 [JNJ-26483327]
11 | > 30 µM (inactive) | > 30 µM (inactive) | > 30 µM (inactive) | > 30 µM (inactive) | > 30 µM (inactive) | COc1cc2nccc(Oc3ccc(NC(=O)C4(C(=O)Nc5ccc(F)cc5)CC4)cc3)c2cc1OC [CABOZANTINIB]
12 | > 30 µM (inactive) | > 30 µM (inactive) | > 30 µM (inactive) | > 30 µM (inactive) | > 30 µM (inactive) | Cn1c(=O)c(F)c(Nc2ccc(I)cc2F)c2c(=O)n(C[C@@H](O)CO)cnc21 [TAK-733]
13 | > 30 µM (inactive) | > 30 µM (inactive) | > 30 µM (inactive) | > 30 µM (inactive) | > 30 µM (inactive) | COc1cc2ncnc(Nc3ccc(O)cc3)c2cc1OC [WHI-P131]
14 | > 30 µM (inactive) | > 30 µM (inactive) | > 30 µM (inactive) | > 30 µM (inactive) | > 30 µM (inactive) | O[C@H]1CC[C@H](Nc2ncc3nc(Nc4c(F)cc(F)cc4F)n([C@H]4CCOC4)c3n2)CC1 [TANZISERTIB]

Row | Structure (SMILES) | Kd [1] | Kd [2] | Kd [3] | Kd [4] | Kd [5]
15 | COc1cc(F)c(F)c(Nc2ccc(I)cc2F)c1NS(=O)(=O)C1(C[C@H](O)CO)CC1 [REFAMETINIB] | > 30 µM (inactive) | > 30 µM (inactive) | > 30 µM (inactive) | > 30 µM (inactive) | > 30 µM (inactive)
16 | CC1(COc2ccc3c(c2)ncn3-c2ccc3cccc(N4CCC(N)CC4)c3n2)COC1 [CRENOLANIB] | > 30 µM (inactive) | 0.821 µM (active) | > 30 µM (inactive) | > 30 µM (inactive) | > 30 µM (inactive)
17 | Cc1c(NC(=O)OC[C@@H]2COCCN2)cn2ncnc(Nc3ccc4c(cnn4Cc4cccc(F)c4)c3)c12 [AC-480] | > 30 µM (inactive) | > 30 µM (inactive) | > 30 µM (inactive) | > 30 µM (inactive) | > 30 µM (inactive)
18 | C=CCn1c(=O)c2cnc(Nc3ccc(N4CCN(C)CC4)cc3)nc2n1-c1cccc(C(C)(C)O)n1 [ADAVOSERTIB] | > 30 µM (inactive) | > 30 µM (inactive) | > 30 µM (inactive) | > 30 µM (inactive) | > 30 µM (inactive)
19 | COCCN1CCN(Cc2ccc(-c3n[nH]c4c3C(=O)c3c(NC(=O)NN5CCOCC5)cccc3-4)cc2)CC1 [RGB-286638] | > 30 µM (inactive) | > 30 µM (inactive) | > 30 µM (inactive) | 0.456 µM (active) | > 30 µM (inactive)
20 | Cc1c(Cn2c(C)nc3c(C(=O)O)cc(N4CCOCC4)cc32)cccc1C(F)(F)F [GSK-2636771] | > 30 µM (inactive) | > 30 µM (inactive) | > 30 µM (inactive) | > 30 µM (inactive) | > 30 µM (inactive)
21 | NC[C@@](O)(c1ccc(Cl)cc1)c1ccc(-c2cn[nH]c2)cc1 [AT-13148] | > 30 µM (inactive) | > 30 µM (inactive) | > 30 µM (inactive) | > 30 µM (inactive) | > 30 µM (inactive)
22 | C=CCN(/C=C1/C(=O)O[C@H](COC)[C@@]2(C)C1=C(O)C(=O)C1=C2[C@H](OC(C)=O)C[C@]2(C)C(=O)CC[C@@H]12)CC=C [SONOLISIB] | > 30 µM (inactive) | > 30 µM (inactive) | > 30 µM (inactive) | > 30 µM (inactive) | > 30 µM (inactive)
23 | CCc1nc(C(N)=O)c(Nc2ccc(N3CCC(N4CCN(C)CC4)CC3)c(OC)c2)nc1NC1CCOCC1 [GILTERITINIB] | > 30 µM (inactive) | 0.207 µM (active) | 0.018 µM | > 30 µM (inactive) | > 30 µM (inactive)
